Laboratory results as given in US20080206253A1, “Method For Preventing or Treating Pain in a Mammal” (priority 2005, published 2008).

Tested on: phosphorylated p38 (P-p38)
Test: Formalin-induced phosphorylation of spinal p38 (Western blot)
Type: in vivo, rat
Details: IT p38α AS 30 μg or p38β AS 20 μg for 5 days; assessed 15 minutes after formalin; in comparison to MS treated rats
Procedure: Injection of formalin into the hind paw leads to phosphorylation of p38 MAP kinase in spinal cord, by 5 minutes after injection. Svensson et al., J Neurochem 86: 1534-1544, 2003b. A full time course was performed (0, 5, 15, 20, 30, 60 min) for formalin-induced phosphorylation of spinal p38 and found peak p38 phosphorylation at 15 min (FIG. 6A). As shown above, down regulation of spinal p380, leads to attenuation of formalin-induced hyperalgesia, it was hypothesized that down-regulation of spinal p38, would reduce the amount of phosphorylated p38 in the spinal cord after formalin injection.
(A) Representative western blots showing levels of P-p38, total p38 and β-actin in the contralateral (left side) and ipsilateral (right side) lumbar spinal cord at different time points after injection of formalin (2.5%, 50 μl) into the dorsal side of the right hind paw. (B) Rats were naïve (no IT treatment, no formalin paw injection) or treated with p38α AS (30 μg), p38β AS (20 μg) or missense (30 μg) for 5 days. On day six, formalin was injected to the hind paw and the level of phosphorylated p38 (P-p38) assessed 15 minutes after injection. […]
Western blot. […] After washing, the antibody-protein complexes were probed with appropriate secondary antibodies labeled with horseradish peroxidase for 1 hr at room temperature and detected with chemiluminescent reagents (SuperSignal, Pierce, Rockford, Ill.). […]

Substance | phosphorylated p38 in the spinal cord after formalin injection
p38α AS: 20-nucleotide 2′-MOE phosphorothioate chimeric antisense AGGTGCTCAGGACTCCATTT, beginning at position 1081 in the rat p38α mRNA (all phosphorothioate, sugars by position and methylation of C not given here; 2'-MOE chimeric (gapmer) antisense) | did not prevent spinal p38 phosphorylation
p38β AS: 20-nucleotide 2′-MOE phosphorothioate chimeric antisense GTATGTCCTCCTCGCGTGGA, beginning at position 439 in the rat p38β mRNA (all phosphorothioate, sugars by position and methylation of C not given here; 2'-MOE chimeric (gapmer) antisense) | reduction of phosphorylated p38
